According to US11186587B2, “Compound as ACC inhibitor and use thereof” (NANJING SANHOME PHARMACEUTICAL CO., LTD., priority 2017, dated 2021):

Key:
ACC1 = ACC1 (Homo sapiens (Human), UniProt Q13085); assay: ACC1 enzyme activity assay (ADP-Glo); format: biochemical; details: ACC1 enzyme 2 nM working solution, room temperature
Description: (§1) Compound preparation: the compounds of the present disclosure prepared in the above examples and the control compound were respectively formulated into 10 mM with DMSO for use.
(§2) Preparation of 1× reaction buffer (pH=7.4): HEPES stock solutions (1 M), MgCl2 (1 M), BRIJ-35 (10%), potassium citrate buffer (1 M), BSA (10 mg/mL) and DTT (500 mM) were formulated to enzyme reaction buffer containing HEPES (50 mM), MgCl2 (2 mM), BRIJ-35 (0.01%), potassium citrate buffer (2 mM), BSA (50 Gg/mL) and DTT (2 mM).
4.5 μL of 2.2×ACC1 enzyme (2 nM) working solution was added to a 384-well plate; and then 0.5 μL of different concentrations of compound were added. The mixture was incubated at room temperature for 15 min.
(§3) Negative control group: menstruum containing 5% DMSO; positive control group: menstruum containing 100 nM ND-630. The average values of each concentration and the positive and negative controls were calculated, and the standard deviation was calculated. […] The inhibition rate data was fitted by nonlinear regression equation to calculate IC50 of each compound. The nonlinear regression equation was Y=lowest value+(highest value−lowest value)/(1+10^((Log IC50−X)×HillSlope)), among which X is logarithm of the compound concentration and Y is inhibition percent (%).

ACC2 = ACC2 (Homo sapiens (Human), UniProt O00763); assay: ACC2 enzyme activity assay (ADP-Glo); format: biochemical; details: ACC2 enzyme 1.1 nM working solution, room temperature
Chain of ACC2 (O00763 whole entry): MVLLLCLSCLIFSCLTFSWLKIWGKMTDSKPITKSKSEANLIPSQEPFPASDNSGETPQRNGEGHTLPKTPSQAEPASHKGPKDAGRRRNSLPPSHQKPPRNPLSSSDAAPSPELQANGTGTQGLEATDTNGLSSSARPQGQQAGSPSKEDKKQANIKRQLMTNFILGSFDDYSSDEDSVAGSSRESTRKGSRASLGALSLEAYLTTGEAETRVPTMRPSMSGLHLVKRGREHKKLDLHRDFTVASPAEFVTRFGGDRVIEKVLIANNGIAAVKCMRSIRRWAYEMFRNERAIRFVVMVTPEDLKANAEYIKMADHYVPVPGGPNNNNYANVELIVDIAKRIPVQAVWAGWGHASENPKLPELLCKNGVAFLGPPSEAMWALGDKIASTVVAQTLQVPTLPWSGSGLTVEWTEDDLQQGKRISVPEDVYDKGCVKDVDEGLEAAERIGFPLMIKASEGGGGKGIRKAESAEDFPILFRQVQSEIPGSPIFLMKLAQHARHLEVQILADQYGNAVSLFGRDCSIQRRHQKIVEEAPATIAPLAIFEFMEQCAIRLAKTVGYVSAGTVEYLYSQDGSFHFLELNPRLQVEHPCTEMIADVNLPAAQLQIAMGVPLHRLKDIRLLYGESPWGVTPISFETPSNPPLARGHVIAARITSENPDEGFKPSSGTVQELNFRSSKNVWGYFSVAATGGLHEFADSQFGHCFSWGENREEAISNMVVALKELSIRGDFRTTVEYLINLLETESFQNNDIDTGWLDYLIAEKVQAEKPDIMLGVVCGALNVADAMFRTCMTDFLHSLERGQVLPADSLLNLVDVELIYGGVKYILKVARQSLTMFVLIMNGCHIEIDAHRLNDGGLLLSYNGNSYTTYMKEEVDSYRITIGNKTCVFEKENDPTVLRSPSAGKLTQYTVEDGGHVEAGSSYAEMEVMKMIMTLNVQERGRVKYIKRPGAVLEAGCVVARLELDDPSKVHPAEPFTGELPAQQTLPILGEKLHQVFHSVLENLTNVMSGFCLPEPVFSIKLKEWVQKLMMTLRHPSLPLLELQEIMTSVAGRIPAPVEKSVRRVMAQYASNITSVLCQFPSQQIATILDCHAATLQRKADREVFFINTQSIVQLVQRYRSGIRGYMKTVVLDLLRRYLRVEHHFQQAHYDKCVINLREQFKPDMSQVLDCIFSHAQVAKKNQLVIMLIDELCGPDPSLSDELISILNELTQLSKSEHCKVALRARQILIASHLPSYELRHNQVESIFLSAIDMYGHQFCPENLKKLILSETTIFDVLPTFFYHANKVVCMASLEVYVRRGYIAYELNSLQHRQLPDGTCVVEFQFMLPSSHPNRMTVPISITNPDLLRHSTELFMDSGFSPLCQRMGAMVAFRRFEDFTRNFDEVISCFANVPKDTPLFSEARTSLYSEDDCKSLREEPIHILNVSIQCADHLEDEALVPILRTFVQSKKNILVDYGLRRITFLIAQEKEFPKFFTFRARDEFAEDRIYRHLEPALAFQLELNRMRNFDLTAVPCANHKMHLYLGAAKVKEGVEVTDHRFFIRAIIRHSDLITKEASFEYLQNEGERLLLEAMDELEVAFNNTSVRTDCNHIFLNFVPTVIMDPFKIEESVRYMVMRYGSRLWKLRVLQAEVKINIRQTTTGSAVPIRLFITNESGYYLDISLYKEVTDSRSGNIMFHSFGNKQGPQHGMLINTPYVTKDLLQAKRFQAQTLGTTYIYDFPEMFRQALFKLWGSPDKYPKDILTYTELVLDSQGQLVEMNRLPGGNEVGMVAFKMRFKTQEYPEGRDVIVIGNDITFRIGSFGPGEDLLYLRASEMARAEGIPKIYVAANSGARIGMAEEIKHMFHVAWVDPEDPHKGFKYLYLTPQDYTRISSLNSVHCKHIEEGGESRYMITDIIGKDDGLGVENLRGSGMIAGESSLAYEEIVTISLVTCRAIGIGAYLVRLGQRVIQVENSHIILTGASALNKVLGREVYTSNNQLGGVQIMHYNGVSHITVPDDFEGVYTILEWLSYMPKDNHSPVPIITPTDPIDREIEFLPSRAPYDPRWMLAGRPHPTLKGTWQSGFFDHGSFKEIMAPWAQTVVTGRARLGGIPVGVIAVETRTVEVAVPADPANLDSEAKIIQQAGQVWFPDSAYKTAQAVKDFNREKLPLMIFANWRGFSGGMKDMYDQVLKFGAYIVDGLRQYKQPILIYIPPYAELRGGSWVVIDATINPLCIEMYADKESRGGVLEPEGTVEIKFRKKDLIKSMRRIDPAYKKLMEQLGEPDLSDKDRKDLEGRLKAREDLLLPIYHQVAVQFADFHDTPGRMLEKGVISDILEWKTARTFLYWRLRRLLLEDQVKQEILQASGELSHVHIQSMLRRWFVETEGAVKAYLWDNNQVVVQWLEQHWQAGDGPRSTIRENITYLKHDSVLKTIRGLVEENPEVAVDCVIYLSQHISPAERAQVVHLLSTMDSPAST
Description: as §1, §2
The mixture was incubated at room temperature for 15 min.
as §3

| Structure (SMILES) | IC50 (ACC1) [nM] | IC50 (ACC2) [nM] |
| --- | --- | --- |
| COc1ccccc1C(Cn1c(=O)n(C(C)(C)C(=O)O)c(=O)c2c(C)c(-c3ncco3)sc21)OC1CN(C(C)=O)C1 (centres unmarked) [Example 23] | 11.5 |  |
| COc1ccccc1C(Cn1c(=O)n(C2CN(C(=O)c3ccccc3)C2)c(=O)c2c(C)c(-c3ncco3)sc21)OC1CCOCC1 (centres unmarked) [Example 11, 3-(1-benzoylazetidin-3-yl)-1-(2-(2-methoxyphenyl)-2-((tetrahydro-2H-pyran-4-yl)oxy)ethyl)-5-methyl-6-(oxazol-2-yl)thieno[2,3-d]pyrimidine-2,4(1H,3H)-dione] | 4.5 |  |
| COc1ccccc1C(Cn1c(=O)n(-c2c(C)ccn3ccnc23)c(=O)c2c(C)c(-c3ncco3)sc21)OC1CCOCC1 (centres unmarked) [Example 5, 1-(2-(2-methoxyphenyl)-2-((tetrahydro-2H-pyran-4-yl)oxy)ethyl)-5-methyl-3-(7-methylimidazo[1,2-a]pyridin-8-yl)-6-(oxazol-2-yl)thieno[2,3-d]pyrimidine-2,4(1H, 3H)-diketone] | 38.5 |  |
| COc1ccccc1C(Cn1c(=O)n(C2CN(C(=O)N3CC(C)(C(=O)O)C3)C2)c(=O)c2c(C)c(-c3ncco3)sc21)OC1CCOCC1 (centres unmarked) [Example 15, 1-(3-(1-(2-(2-methoxyphenyl)-2-((tetrahydro-2H-pyran-4-yl)oxy)ethyl)-5-methyl-6-(oxazol-2-yl)-2,4-dioxo-1,2-dihydrothieno[2,3-d]pyrimidin-3 (4H)-yl)azetidine-1-carbonyl)-3-methylazetidine-3-carboxylic Acid] | 8.79 |  |
| COc1ccccc1C(Cn1c(=O)n(C2CN(C(=O)N3CC(C)(O)C3)C2)c(=O)c2c(C)c(-c3ncco3)sc21)OC1CCOCC1 (centres unmarked) [Example 16, 3-(1-(3-Hydroxy-3-methylazetidin-1-oyl)azetidin-3-yl)-1-(2-(2-methoxyphenyl)-2-((tetrahydro-2H-pyran-4-yl)oxy)ethyl)-5-methyl-6-(oxazol-2-yl)thieno[2,3-d]pyrimidine-2,4(1H,3H)-dione] | 6.89 |  |
| COc1ccccc1C(Cn1c(=O)n(-c2cccc(C(=O)O)c2F)c(=O)c2c(C)c(-c3ncco3)sc21)OC1CCOCC1 (centres unmarked) [Example 28, 2-Fluoro-3-(1-(2-(2-methoxyphenyl)-2-((tetrahydro-2H-pyran-4-yl)oxy)ethyl)-5-methyl-6-(oxazol-2-yl)-2,4-dioxo-1,4-dihydrothieno[2,3-d]pyrimidin-3(2H)-yl)benzoic Acid] | 1.48 | 7.8 |
| COc1ccccc1C(Cn1c(=O)n(C2CNC2)c(=O)c2c(C)c(-c3ncco3)sc21)OC1CCOCC1 (centres unmarked) [Example 6, 3-(azetidin-3-yl)-1-(2-(2-methoxyphenyl)-2-((tetrahydro-2H-pyran-4-yl)oxy)ethyl)-5-methyl-6-(oxazol-2-yl)thieno[2,3-d]pyrimidine-2,4(1H,3H)-dione] | 2.81 | 9.64 |
| COc1ccccc1C(Cn1c(=O)n(C(C)(C)C(=O)O)c(=O)c2c(C)c(-c3ncco3)sc21)OC1CCN(C(C)=O)CC1 (centres unmarked) [Example 20, 2-(1-(2-((1-acetylpiperidin-4-yl)oxy)-2-(2-methoxyphenyl)ethyl)-5-methyl-6-(oxazol-2-yl)-2,4-dioxo-1,4-dihydrothieno[2,3-d]pyrimidin-3(2H)-yl)-2-methylpropionic Acid] | 0.91 | 8.03 |
| COc1ccccc1C(Cn1c(=O)n(C(C)(C)C(=O)O)c(=O)c2c(C)c(-c3ncco3)sc21)OC1CCNCC1 (centres unmarked) [Example 17] | 7.66 |  |
| COc1ccccc1C(Cn1c(=O)n(C2CN(C(=O)c3ccccn3)C2)c(=O)c2c(C)c(-c3ncco3)sc21)OC1CCOCC1 (centres unmarked) [Example 13, 1-(2-(2-methoxyphenyl)-2-((tetrahydro-2H-pyran-4-yl)oxy)ethyl)-5-methyl-6-(oxazol-2-yl)-3-(1-pyridineformylazetidin-3-yl)thieno[2,3-d]pyrimidine-2,4(1H,3H)-dione] | 2.33 | 11.6 |
| COc1ccccc1C(Cn1c(=O)n(C2CC(F)(F)C2)c(=O)c2c(C)c(-c3ncco3)sc21)OC1CCOCC1 (centres unmarked) [Example 2, 3-(3,3-Difluorocyclobutyl)-1-(2-(2-methoxyphenyl)-2-((tetrahydro-2H-pyran-4-yl)oxy)ethyl)-5-methyl-6-(oxazol-2-yl)thieno[2,3-d]pyrimidine-2,4(1H,3H)-dione] | 8.7 |  |
| COc1ccccc1C(Cn1c(=O)n(C(C)(C)C(=O)O)c(=O)c2c(C)c(-c3ncco3)sc21)N1CCCCC1 (centres unmarked) [Example 18, 2-(1-(2-(2-methoxyphenyl)-2-(piperidin-1-yl)ethyl)-5-methyl-6-(oxazol-2-yl)-2,4-dioxo-1,4-dihydrothieno[2,3-d]pyrimidin-3(2H)-yl)-2-methylpropionic Acid] | > 1000 |  |
| COc1ccccc1C(Cn1c(=O)n(C2CN(C(=O)c3ncc[nH]3)C2)c(=O)c2c(C)c(-c3ncco3)sc21)OC1CCOCC1 (centres unmarked) [Example 14] | 1.69 | 7.85 |
| COc1ccccc1C(Cn1c(=O)n(C(C)(C)C(=O)O)c(=O)c2c(C)c(-c3ncco3)sc21)OC1CCN(C)CC1 (centres unmarked) [Example 19, 2-(1-(2-(2-methoxyphenyl)-2-((1-methylpiperidin-4-yl)oxy)ethyl)-5-methyl-6-(oxazol-2-yl)-2,4-dioxo-1,4-dihydrothieno[2,3-d]pyrimidin-3(2H)-yl)-2-methylpropionic Acid] | 23.3 |  |
| COc1ccccc1C(Cn1c(=O)n(C2CN(C(=O)C3CC3)C2)c(=O)c2c(C)c(-c3ncco3)sc21)OC1CCOCC1 (centres unmarked) [Example 8, 3-(1-(cyclopropanecarbonyl)azetidin-3-yl)-1-(2-(2-methoxyphenyl)-2-((tetrahydro-2H-pyran-4-yl)oxy)ethyl)-5-methyl-6-thieno[2,3-d]pyrimidine-2,4(1H,3H)-dione] | 1.12 | 13.1 |
| COc1ccccc1[C@H](Cn1c(=O)n([C@H]2C[C@](C)(C(=O)O)C2)c(=O)c2c(C)c(-c3ncco3)sc21)OC1CCOCC1 [Example 3, (1R,3r)-3-(1-((R)-2-(2-methoxyphenyl)-2-((tetrahydro-2H-pyran-4-yl)oxy)ethyl)-5-methyl-6-(oxazol-2-yl)-2,4-dioxo-1,4-dihydrothieno[2,3-d]pyrimidine-3(2H)-yl)-1-methylcyclobutanecarboxylic Acid] | 1 | 11.9 |
| CCS(=O)(=O)N1CC(n2c(=O)c3c(C)c(-c4ncco4)sc3n(CC(OC3CCOCC3)c3ccccc3OC)c2=O)C1 (centres unmarked) [Example 10, 3-(1-(ethylsulfonyl)azetidin-3-yl)-1-(2-(2-methoxyphenyl)-2-((tetrahydro-2H-pyran-4-yl)oxy)ethyl)-5-methyl-6-(oxazol-2-yl)thieno[2,3-d]pyrimidine-2,4(1H, 3H)-dione] | 1.35 | 6.85 |
| COc1ccccc1C(Cn1c(=O)n(-c2cc(C(=O)O)ccc2F)c(=O)c2c(C)c(-c3ncco3)sc21)OC1CCOCC1 (centres unmarked) [Example 30, 4-Fluoro-3-(1-(2-(2-methoxyphenyl)-2-((tetrahydro-2H-pyran-4-yl)oxy)ethyl)-5-methyl-6-(oxazol-2-yl)-2,4-dioxo-1,4-dihydrothieno[2,3-d]pyrimidin-3(2H)-yl)benzoic Acid] | 7.97 |  |
| COc1ccccc1C(Cn1c(=O)n(C(C)(C)C(=O)O)c(=O)c2c(C)c(-c3ncco3)sc21)OC1CCN(C(=O)C2CC2)CC1 (centres unmarked) [Example 21] | 0.7 |  |
| COc1ccccc1C(Cn1c(=O)n(-c2cc(C(=O)O)ccc2OC)c(=O)c2c(C)c(-c3ncco3)sc21)OC1CCOCC1 (centres unmarked) [Example 27] | 11.8 |  |
| COc1ccccc1C(Cn1c(=O)n(C2CC(OCCF)C2)c(=O)c2c(C)c(-c3ncco3)sc21)OC1CCOCC1 (centres unmarked) [Example 31] | 136 |  |
